Biological target: T1, TRPV1 human (Homo sapiens, UniProt Q8NER1)
T1 construct: expressed in transfected cells; host or cells: CHO K1 cells
Experiment: Functional testing on the vanilloid receptor 1 (VR1/TRPV1): FLIPR Ca2+ influx assay, inhibition of capsaicin (CAP) stimulation
Format: cell-based
Conditions: for Ki: functional (f) FLIPR assay, capsaicin (CAP) 100 nM, Ki from IC50 by Cheng-Prusoff equation; for inhibition at 5 µM: @ 5 µM compound; for TRPV1 human (f) CAP, result in words: ne = did not show any effect in this assay, pAG = partial agonist
Method: Furthermore, preference may be given to compounds according to the invention that cause a 50 per cent displacement of capsaicin, which is present at a concentration of 100 nM, in a FLIPR assay with CHO K1 cells which were transfected with the human VR1 gene at a concentration of less than 6,000 nM, preferably less than 5,000 nM, more preferably less that 3,000 nM or less than 1,000 nM and particularly preferably less than 300 nM, most particularly preferably less than 100 nM, even more preferably less than 75 nM, additionally preferably less than 50 nM, most preferably less than 10 nM.
In the process, the Ca^2+ influx is quantified in the FLIPR assay with the aid of a Ca^2+-sensitive dye (type Fluo-4, Molecular Probes Europe BV, Leiden, the Netherlands) in a fluorescent imaging plate reader (FLIPR, Molecular Devices, Sunnyvale, USA), as described hereinafter.
Functional testing carried out on the vanilloid receptor 1 (VRI/TRPV1 receptor) […]
The number of cells in the suspension is set to 3 x 10^5 per mL and 150 µL of this suspension are in each case introduced into a recess in the cell culture plates coated as described hereinbefore. In the incubator the plates are left for two to three days at 37°C, 5 vol.-% of CO2 and 95 % relative humidity. Subsequently, the cells are loaded with 2 µM of Fluo-4 and 0.01 vol.-% of Pluronic F127 (Molecular Probes Europe BV, Leiden, the Netherlands) in HBSS buffer for 30 min at 37°C, washed 3 times with HBSS buffer and after further incubation for 15 min at RT used for Ca^2+ measurement in a FLIPR assay. The Ca^2+-dependent fluorescence is in this case measured before and after the addition of substances (λex = 488 nm, λem = 540 nm). Quantification is carried out by measuring the highest fluorescence intensity (FC, fluorescence counts) over time.
The FLIPR protocol consists of 2 substance additions. First the compounds to be tested (10 µM) are pipetted onto the cells and the Ca^2+ influx is compared with the control (capsaicin 10 µM). This provides the result in % activation based on the Ca^2+ signal after the addition of 10 µM of capsaicin (CP). After 5 min incubation, 100 nM of capsaicin are applied and the Ca^2+ influx is also determined. Desensitising agonists and antagonists lead to suppression of the Ca^2+ influx. The % inhibition is calculated compared to the maximum achievable inhibition with 10 µM of capsazepine.
Triple analyses (n=3) are carried out and repeated in at least 3 independent experiments (N=4). Starting from the percentage displacement caused by different concentrations of the compounds to be tested of general formula I, IC50 inhibitory concentrations which cause a 50% displacement of capsaicin were calculated.
Ki values for the test substances were obtained by conversion by means of the Cheng-Prusoff equation (Cheng, Prusoff; Biochem. Pharmacol. 22, 3099-3108, 1973).

[1] = capsaicin (CAP) stimulus, relative to maximum achievable inhibition with 10 µM capsazepine, read-out: TRPV1 human (f) CAP, inhibition (in %)

T1 sequence (Q8NER1 whole entry): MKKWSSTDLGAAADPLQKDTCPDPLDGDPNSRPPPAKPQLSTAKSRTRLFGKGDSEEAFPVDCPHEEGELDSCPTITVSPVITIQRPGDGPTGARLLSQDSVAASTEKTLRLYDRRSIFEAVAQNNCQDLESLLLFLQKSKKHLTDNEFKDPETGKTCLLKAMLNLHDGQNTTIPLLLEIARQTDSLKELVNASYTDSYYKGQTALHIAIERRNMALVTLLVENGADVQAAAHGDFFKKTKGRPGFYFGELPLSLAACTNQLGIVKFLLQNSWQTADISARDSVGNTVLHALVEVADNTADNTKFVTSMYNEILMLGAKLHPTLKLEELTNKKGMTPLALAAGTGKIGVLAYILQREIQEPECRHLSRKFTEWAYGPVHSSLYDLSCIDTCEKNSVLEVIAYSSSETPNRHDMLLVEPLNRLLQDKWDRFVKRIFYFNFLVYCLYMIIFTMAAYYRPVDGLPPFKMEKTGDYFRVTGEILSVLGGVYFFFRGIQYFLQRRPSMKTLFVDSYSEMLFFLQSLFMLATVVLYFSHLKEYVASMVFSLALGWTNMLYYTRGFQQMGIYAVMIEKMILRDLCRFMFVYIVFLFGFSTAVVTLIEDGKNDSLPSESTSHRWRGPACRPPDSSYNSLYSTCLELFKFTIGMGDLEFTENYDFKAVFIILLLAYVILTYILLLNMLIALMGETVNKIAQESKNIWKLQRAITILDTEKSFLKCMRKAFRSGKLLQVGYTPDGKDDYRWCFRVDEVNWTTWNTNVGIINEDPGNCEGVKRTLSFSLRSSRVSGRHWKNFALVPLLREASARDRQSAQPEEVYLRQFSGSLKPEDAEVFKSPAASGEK

SMILES: CC1CCN(c2nc(C(F)(F)F)ccc2CNC(=O)C(C)c2cn(C)c3ccc(O)cc23)CC1 (stereo not drawn) [example compound 1, 2-(5-hydroxy-1-methyl-1H-indol-3-yl)-N-((2-(4-methylpiperidin-1-yl)-6-(trifluoromethyl)pyridin-3-yl)methyl)propanamide]
- Ki: 0.8 nM

SMILES: COc1ccc2c(c1)c(CC(=O)NCc1ccc(C(F)(F)F)nc1N1CCC(C)CC1)cn2C [example compound 2, 2-(5-methoxy-1-methyl-1H-indol-3-yl)-N-((2-(4-methylpiperidin-1-yl)-6-(trifluoromethyl)pyridin-3-yl)methyl)acetamide]
- Ki: 29.6 nM

SMILES: CC(C(=O)NCc1ccc(C(F)(F)F)nc1C1CCCC1)c1cn(C)c2ccc(O)cc12 (stereo not drawn) [example compound 3, N-((2-cyclopentyl-6-(trifluoromethyl)pyridin-3-yl)methyl)-2-(5-hydroxy-1-methyl-1H-indol-3-yl)propanamide]
- Ki: 4.8 nM

SMILES: CCNc1nc(C(F)(F)F)ccc1CNC(=O)C(C)c1cn(C)c2ccc(O)cc12 (stereo not drawn) [example compound 4, N-((2-(ethylamino)-6-(trifluoromethyl)pyridin-3-yl)methyl)-2-(5-hydroxy-1-methyl-1H-indol-3-yl)propanamide]
- Ki: 44.2 nM

SMILES: CC(C(=O)NCc1ccc(C(F)(F)F)nc1N1CCCC1)c1cn(C)c2ccc(O)cc12 (stereo not drawn) [example compound 5, 2-(5-hydroxy-1-methyl-1H-indol-3-yl)-N-((2-(pyrrolidin-1-yl)-6-(trifluoromethyl)pyridin-3-yl)methyl)propanamide]
- Ki: 5 nM

SMILES: CCCCNc1nc(C(F)(F)F)ccc1CNC(=O)C(C)c1cn(C)c2ccc(O)cc12 (stereo not drawn) [example compound 6, N-((2-(butylamino)-6-(trifluoromethyl)pyridin-3-yl)methyl)-2-(5-hydroxy-1-methyl-1H-indol-3-yl)propanamide]
- Ki: 16.2 nM

SMILES: CC(C(=O)NCc1ccc(C(F)(F)F)nc1OC1CCOCC1)c1cn(C)c2ccc(O)cc12 (stereo not drawn) [example compound 7, 2-(5-hydroxy-1-methyl-1H-indol-3-yl)-N-((2-((tetrahydro-2H-pyran-4-yl)oxy)-6-(trifluoromethyl)pyridin-3-yl)methyl)propanamide]
- Ki: 29.1 nM

SMILES: Cc1cccc(-c2nc(C(F)(F)F)ccc2CNC(=O)C(C)c2cn(C)c3ccc(O)cc23)c1 (stereo not drawn) [example compound 8, 2-(5-hydroxy-1-methyl-1H-indol-3-yl)-N-((2-(m-tolyl)-6-(trifluoromethyl)pyridin-3-yl)methyl)propanamide]
- Ki: 1.4 nM

SMILES: CC(C(=O)NCc1ccc(C(F)(F)F)nc1C1CCOCC1)c1cn(C)c2ccc(O)cc12 (stereo not drawn) [example compound 9, 2-(5-hydroxy-1-methyl-1H-indol-3-yl)-N-((2-(tetrahydro-2H-pyran-4-yl)-6-(trifluoromethyl)pyridin-3-yl)methyl)propanamide]
- Ki: 45.7 nM

SMILES: CC(C(=O)NCc1ccc(C(F)(F)F)nc1N1CCOCC1)c1cn(C)c2ccc(O)cc12 (stereo not drawn) [example compound 10, 2-(5-hydroxy-1-methyl-1H-indol-3-yl)-N-((2-morpholino-6-(trifluoromethyl)pyridin-3-yl)methyl)propanamide]
- Ki: 29.3 nM

SMILES: CC1CCN(c2nc(C(F)(F)F)ccc2CNC(=O)Cc2cn(C)c3ccc(O)cc23)CC1 [example compound 11, 2-(5-hydroxy-1-methyl-1H-indol-3-yl)-N-((2-(4-methylpiperidin-1-yl)-6-(trifluoromethyl)pyridin-3-yl)methyl)acetamide]
- Ki: 0.3 nM

SMILES: COCCCc1nc(C(F)(F)F)ccc1CNC(=O)C(C)c1cn(C)c2ccc(O)cc12 (stereo not drawn) [example compound 12, 2-(5-hydroxy-1-methyl-1H-indol-3-yl)-N-((2-(3-methoxypropyl)-6-(trifluoromethyl)pyridin-3-yl)methyl)propanamide]
- Ki: 81 nM

SMILES: CC(C(=O)NCc1ccc(C(F)(F)F)nc1N1CCCCC1)c1cn(C)c2ccc(O)cc12 (stereo not drawn) [example compound 13, 2-(5-hydroxy-1-methyl-1H-indol-3-yl)-N-((2-(piperidin-1-yl)-6-(trifluoromethyl)pyridin-3-yl)methyl)propanamide]
- Ki: 3.9 nM

SMILES: CC1CCN(c2nc(C(F)(F)F)ccc2CNC(=O)C(C)c2cn(C)c3ccccc23)CC1 (stereo not drawn) [example compound 14, 2-(1-methyl-1H-indol-3-yl)-N-((2-(4-methylpiperidin-1-yl)-6-(trifluoromethyl)pyridin-3-yl)methyl)propanamide]
- Ki: 53 nM

SMILES: COCCOCc1nc(C(F)(F)F)ccc1CNC(=O)C(C)c1cn(C)c2ccc(O)cc12 (stereo not drawn) [example compound 15, 2-(5-hydroxy-1-methyl-1H-indol-3-yl)-N-((2-((2-methoxyethoxy)methyl)-6-(trifluoromethyl)pyridin-3-yl)methyl)propanamide]
- inhibition at 5 µM [1]: 15%

SMILES: CCNc1nc(C(F)(F)F)ccc1CNC(=O)C(C)c1cn(C)c2ccc(OC)cc12 (stereo not drawn) [example compound 16, N-((2-(ethylamino)-6-(trifluoromethyl)pyridin-3-yl)methyl)-2-(5-methoxy-1-methyl-1H-indol-3-yl)propanamide]
- TRPV1 human (f) CAP, result in words: ne

SMILES: CCNc1nc(C(F)(F)F)ccc1CNC(=O)Cc1cn(C)c2ccc(OC)cc12 [example compound 17, N-((2-(ethylamino)-6-(trifluoromethyl)pyridin-3-yl)methyl)-2-(5-methoxy-1-methyl-1H-indol-3-yl)acetamide]
- inhibition at 1 µM (@ 1 µM compound, capsaicin (CAP) stimulus, relative to maximum achievable inhibition with 10 µM capsazepine, read-out: TRPV1 human (f) CAP, inhibition (in %)): 0%
- inhibition at 5 µM [1]: 35%

SMILES: CCNc1nc(C(F)(F)F)ccc1CNC(=O)Cc1cn(C)c2ccc(O)cc12 [example compound 18, N-((2-(ethylamino)-6-(trifluoromethyl)pyridin-3-yl)methyl)-2-(5-hydroxy-1-methyl-1H-indol-3-yl)acetamide]
- Ki: 8.2 nM

SMILES: CCCCNc1nc(C(F)(F)F)ccc1CNC(=O)C(C)c1cn(C)c2ccc(OC)cc12 (stereo not drawn) [example compound 19, N-((2-(butylamino)-6-(trifluoromethyl)pyridin-3-yl)methyl)-2-(5-methoxy-1-methyl-1H-indol-3-yl)propanamide]
- Ki: 76.4 nM

SMILES: Cn1cc(CC(=O)NCc2ccc(C(F)(F)F)nc2N2CCOCC2)c2cc(O)ccc21 [example compound 20, 2-(5-hydroxy-1-methyl-1H-indol-3-yl)-N-((2-morpholino-6-(trifluoromethyl)pyridin-3-yl)methyl)acetamide]
- Ki: 16.5 nM

SMILES: Cn1cc(CC(=O)NCc2ccc(C(F)(F)F)nc2C2CCCC2)c2cc(O)ccc21 [example compound 21, N-((2-cyclopentyl-6-(trifluoromethyl)pyridin-3-yl)methyl)-2-(5-hydroxy-1-methyl-1H-indol-3-yl)acetamide]
- Ki: 8 nM

SMILES: CC(C(=O)NCc1ccc(C(F)(F)F)nc1CC1CCCCC1)c1cn(C)c2ccccc12 (stereo not drawn) [example compound 22, N-((2-(cyclohexylmethyl)-6-(trifluoromethyl)pyridin-3-yl)methyl)-2-(1-methyl-1H-indol-3-yl)propanamide]
- Ki: 35.9 nM

SMILES: CC1CCN(c2nc(C(F)(F)F)ccc2CNC(=O)Nc2nc3c(Cl)cccc3s2)CC1 [example compound 23, 1-(4-chlorobenzo[d]thiazol-2-yl)-3-((2-(4-methylpiperidin-1-yl)-6-(trifluoromethyl)pyridin-3-yl)methyl)urea]
- TRPV1 human (f) CAP, result in words: ne

SMILES: CC1CCN(c2nc(C(F)(F)F)ccc2CNC(=O)Nc2nc3c([N+](=O)[O-])cccc3s2)CC1 [example compound 24, 1-((2-(4-methylpiperidin-1-yl)-6-(trifluoromethyl)pyridin-3-yl)methyl)-3-(4-nitrobenzo[d]thiazol-2-yl)urea]
- Ki: 31.2 nM
- TRPV1 human (f) CAP, result in words: pAG

SMILES: CC1CCN(c2nc(C(F)(F)F)ccc2CNC(=O)Nc2nc3ccccc3s2)CC1 [example compound 25, 1-(benzo[d]thiazol-2-yl)-3-((2-(4-methylpiperidin-1-yl)-6-(trifluoromethyl)pyridin-3-yl)methyl)urea]
- Ki: 84.9 nM

— patent publication EP3130589A1, “HETEROCYCLIC AZA COMPOUNDS” (Grünenthal GmbH, priority 2015, dated 2017)
